Values of other authors in US20120141587A1, “COMPOSITIONS AND METHODS FOR TREATMENT OR PREVENTION OF POST-OPERATIVE ORGAN OR TISSUE INFLAMMATION” (priority 2009, published 2012).

Experiments:
[1] = test system: atrial fibrillation; settings: instilled into a canine's pericardial sac; Ayers et al. 1996
[2] = test system: inducible atrial flutter; settings: oral; canine sterile pericarditis model; Goldstein et al. 2007

CCCCc1oc2ccccc2c1C(=O)c1cc(I)c(OCCN(CC)CC)c(I)c1 [amiodarone]
effect on atrial fibrillation [1]: effectiveness in suppressing atrial fibrillation

C[C@]12C=CC(=O)C=C1CC[C@@H]1[C@@H]2C(=O)C[C@@]2(C)[C@H]1CC[C@]2(O)C(=O)CO [prednisone]
effect on inducible atrial flutter [2]: prevent inducible atrial flutter
